# Reference: patent US11779582B2, “Composition for preventing or treating metastatic ovarian cancer, endometrial cancer or breast cancer” (LEMONEX INC., priority 2017, dated 2023)
# Columns and labels:
# Type in all cases: cell-based
# [1] = test system: sphere cultured SKOV3ip1 cells; assay: microscopic observation of aggregated (spheroid) form; conditions: 5 μM BGJ398, 3 μM TAE648, 5 μM imatinib (FIG. 5)
# Method: (§1) For 3D sphere culture, SKOV3ip1 cells (1×10^6) were dispensed on ultra-low adherent 6-well plate (Corning NY, USA), and then, cultured in 5% CO2 incubator using RPMI 1640 medium supplemented with 10% fetal bovine serum (Gibco, NY, USA) and 10 U/ml penicillin/streptomycin (Gibco).
# [2] = test system: AKT and STAT3 phosphorylation in sphere cultured SKOV3ip1 cells; assay: immunostaining of AKT and STAT3 phosphorylation, sphere culture
# Text: In order to identify whether a change in signaling pathways associated with cell survival appears or not according to 2D monolayer culture (2D MC) and 3D sphere culture (3D SC), immunostaining was implemented. More particularly, after culturing SKOV3ip1 cells (1×10^6) by 2D monolayer culture or 3D sphere culture described in section 1.1, expression of cell-signaling molecules including AKT, STAT3, p42/44 ERK and p38 MAPK was detected and activation states in the monolayer cultured cells and the sphere cultured cells were compared. The monolayer cultured or sphere cultured SKOV3ip1 cells were harvested and washed once with ice-cold 1× phosphate buffered saline, followed by dissolving the same in 100 μl ice-cold RIPA buffer (20 mM Tris-Cl, pH 8.0, 125 mM NaCl, […], 1 mM ethylene diamine tetraacetic acid, 1% Triton X-100, 0.5% sodium deoxycholate, 0.1% sodium dodecyl sulfate, 1× complete protease inhibitor cocktail (Roche, Mannheim, Germany)) on ice. After assessing the protein concentration using a Bradford Protein assay kit (Biorad, CA, USA), the same amount of proteins (30 μg) was separated by SDS-PAGE and moved to a nitrocellulose membrane, followed by immunostaining the same using a horseradish peroxide conjugated second antibody and a specific antibody. An immune activation band was detected with SuperSignal West Pico Chemiluminescent Substrate (Thermo, IL, USA) using a Fusion Solo chemiluminescence analyzer (Vilber Rourmat Marne la Vallee, France). Antibodies to STAT3 (H-190), STAT3 (B-7) phosphorylated at Tyr705 and actin (C-2) were purchased from Santa Cruz Biotechnology. Rabbit monoclonal antibodies on AKT, AKT (D9E) phosphorylated at Ser473, FGFR1 phosphorylated at Tyr 653/654, p42/44 MAPK, phosphorylated p42/44 MAPK, p38 MAPK and p38 MAPK phosphorylated at Tyr 180/182 were purchased from Cell Signaling Technology (MA, USA). Further, HRP-conjugated goat anti-mouse and rabbit secondary antibodies were purchased from Jackson Laboratories, while BGJ398 used in the experiment (against FGFR1/2/3) was purchased from Selleckchem (USA).
# Under this ground, in order to determine whether BGJ398 can vary the state of AKT and STAT3 in the sphere cultured SKOV3ip1 cells, the monolayer cultured (MC) or sphere cultured (SC) SKOV3ip1 cells were subjected to treatment using 5 μM BGJ398, followed by examining the degree of phosphorylation due to the above treatment.
# Further, the sphere cultured SKOV3ip1 cells were treated with 5 μM BGJ398 (BGJ), 3 μM TAE648 (TAE) and 5 μM imatinib (IMT), respectively. After 72 hours, a cell lysate was obtained and subjected to immunostaining, followed by analyzing active cellular expression of AKT and STAT3 with the antibody for the same. Further, a phosphorylation level of FGFR1 was used as a positive control group relative to BGJ treatment groups while actin was used as a loading control group. The immunostaining assay procedure was implemented in the same manner as in Example 1.
# Since the cell survival of the sphere cultured SKOV3ip1 cells is inhibited by BGJ398 treatment, whether such cell survival inhibition is intermediated through JAK/STAT3 signaling pathway was further examined. […]
# [3] = test system: cleaved PARP in SKOV3-TR ovarian cancer cells; assay: cleaved PARP immunostaining; conditions: BGJ398 in combination with paclitaxel (FIGS. 24 and 25)
# Text: In order to identify whether a change in signaling pathways associated with cell survival appears or not according to 2D monolayer culture (2D MC) and 3D sphere culture (3D SC), immunostaining was implemented. More particularly, after culturing SKOV3ip1 cells (1×10^6) by 2D monolayer culture or 3D sphere culture described in section 1.1, expression of cell-signaling molecules including AKT, STAT3, p42/44 ERK and p38 MAPK was detected and activation states in the monolayer cultured cells and the sphere cultured cells were compared. […] An immune activation band was detected with SuperSignal West Pico Chemiluminescent Substrate (Thermo, IL, USA) using a Fusion Solo chemiluminescence analyzer (Vilber Rourmat Marne la Vallee, France). […]
# FIGS. 24 and 25 illustrate expression of cleaved PARP and actin upon administration of paclitaxel alone, BGJ398 alone or in combination with paclitaxel to SKOV3-TR ovarian cancer cells, which was determined by the immunostaining method described above.
# [4] = test system: phosphorylated AKT and XIAP in SKOV3-TR ovarian cancer cells; assay: immunostaining of AKT down-signal mechanism; conditions: BGJ398 treatment, paclitaxel alone or in combination with BGJ398 (FIG. 27)
# Method: FIG. 27 illustrates results of identifying whether there is expression of AKT, phosphorylated AKT, BAD, phosphorylated BAD, XIAP, CASP9, p42/44 and/or phosphorylated p42/44, in order to determine AKT down-signal mechanism in relation to cell survival and cell apoptosis in the cells when paclitaxel alone or in combination with BGJ398 was administered to SKOV3-TR ovarian cancer cells. […] The reason of this fact is considered because a level of XIAP expression in the cells is decreased thus to improve paclitaxel sensitivity.
# [5] = test system: sphere cultured SKOV3ip1 ovarian cancer cells; assay: crystal violet cell viability, 3D sphere culture
# Method: as §1
# In order to assess the cell viability in the sphere cultured cells, the SKOV3ip1 cells (5×10^4) were dispensed on the super-low adherent 24-well plate and cultured overnight. The cells were harvested from each well and the commercial 24-well plate was moved, followed by further incubation for 12 hours. The adhered and visualized cells were stained with 0.2% crystal violet solution for 20 minutes while gently agitating the same. The stained cells were washed with distilled water until a clean background is observed. For assessment using a colorimeter, the crystal violet dye was extracted with 1% SDS/PBS and absorbance was measured at 570 nm wavelength by EMax PLUS microplate reader (Molecular Device, USA).
# The monolayer cultured or sphere cultured SKOV3ip1 cells were treated with the tyrosine kinase inhibitor and paclitaxel for 72 hours, the cell viability was determined by the crystal violet colorimeter, and results thereof are shown in FIG. 3.
# Since the cell survival of the sphere cultured SKOV3ip1 cells is inhibited by BGJ398 treatment, whether such cell survival inhibition is intermediated through JAK/STAT3 signaling pathway was further examined. For this purpose, the selective JAK tyrosine kinase inhibitor AG490 was used at different concentrations of 3.125 to 50 μM in order to treat the monolayer cultured or sphere cultured SKOV3ip1 cells, and after 72 hours, whether it affects the cell viability and AKT and STAT3 activation was examined through crystal violet staining and immunostaining assay, and results thereof are shown in FIG. 7. Actin was used as a loading control group.
# Under this ground, when administering BGJ398 in combination with paclitaxel typically used as the existing primary anticancer drug for ovarian cancer, whether paclitaxel resistance of the sphere cultured cells is overcome and improved was determined.
smiles,measurement,setting,value
"CCN1CCN(c2ccc(Nc3cc(N(C)C(=O)Nc4c(Cl)c(OC)cc(OC)c4Cl)ncn3)cc2)CC1 [BGJ398, 3-(2,6-dichloro-3,5-dimethoxyphenyl)-1-[6-[4-(4-ethylpiperazin-1yl)anilino]pyrimidin-4-yl]-1-methylurea]",aggregated (spheroid) form of cells,[1],did not retain a normal coagulation state
same,AKT and STAT3 phosphorylation,"[2]; sphere cultured SKOV3ip1, 5 μM BGJ398 (FIG. 6), AG490, 72 hours (FIG. 7B)",suppressed again
same,phosphorylated AKT at Ser473,"[2]; sphere cultured, 5 μM BGJ398, 3 μM TAE648, 5 μM imatinib, 72 hours (FIG. 6)",inhibits phosphorylated AKT at Ser473 residue
same,expression of cleaved PARP and actin,[3],increased in concentration- and time-dependent manners
same,XIAP expression,[4],XIAP expression is reduced
same,level of phosphorylated AKT,[4],significantly decreased
same,paclitaxel sensitivity,"[5]; 3D cultured SKOV3ip1, 1.25 and 5 μM BGJ398 with paclitaxel vs BGJ398 untreated group",increased paclitaxel sensitivity in a dose-dependent manner
same,cytotoxicity,"[5]; 3D sphere cultured SKOV3ip1, 1 μM BGJ398, Day 3",showed cytotoxicity
same,cell viability,"[5]; sphere cultured SKOV3ip1, 72 hours, different concentrations, crystal violet colorimeter (FIG. 3)",reduced the cell viability in a dose-dependent manner
same,cell apoptosis,"[5]; sphere cultured SKOV3ip1, paclitaxel in combination with BGJ398 vs paclitaxel alone, 72 hours (FIG. 8)",higher cell apoptosis than the cells treated with paclitaxel alone
